Laboratory results taken from PubChem BioAssay AID248 (DTP/NCI, 2004).
“And” between values parts separate entries of the source, which are not always exact repeats. Equal entries are not always repeated. Toxic doses and inconclusive results are not listed. Rule as the data show it: active = T/C of 150% or more; inactive = T/C below 125%.

Test system: L1210 leukemia ip in BDF1 mice, survival T/C
Test: NCI In Vivo Anticancer Drug Screen. Data for tumor model L1210 Leukemia (intraperitoneal) in B6D2F1 (BDF1) mice
Settings: endpoint: mean survival time, higher = longer survival
Outline: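 Each compound was tested against a transplantable tumor grown in mice. The endpoint was survival, with treated animals benchmarked against vehicle controls as a simple ratio.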

[1] = dose: 25.0 mg/kg/injection, schedule: Q01DX009 (ip), vehicle: Klucel (hydroxypropylcellulose) (HPC)
[2] = dose: 50.0 mg/kg/injection, schedule: Q01DX009 (ip), vehicle: Klucel (hydroxypropylcellulose) (HPC)
[3] = dose: 100.0 mg/kg/injection, schedule: Q01DX001 (ip), vehicle: Klucel (hydroxypropylcellulose) (HPC)
[4] = dose: 100.0 mg/kg/injection, schedule: Q01DX009 (ip), vehicle: Klucel (hydroxypropylcellulose) (HPC)
[5] = dose: 100.0 mg/kg/injection, schedule: Q04DX003 (ip), vehicle: Klucel (hydroxypropylcellulose) (HPC)
[6] = dose: 200.0 mg/kg/injection, schedule: Q01DX009 (ip), vehicle: Klucel (hydroxypropylcellulose) (HPC)
[7] = dose: 200.0 mg/kg/injection, schedule: Q04DX003 (ip), vehicle: Klucel (hydroxypropylcellulose) (HPC)
[8] = dose: 400.0 mg/kg/injection, schedule: Q01DX009 (ip), vehicle: Klucel (hydroxypropylcellulose) (HPC)
[9] = dose: 400.0 mg/kg/injection, schedule: Q04DX003 (ip), vehicle: Klucel (hydroxypropylcellulose) (HPC)
[10] = dose: 100.0 mg/kg/injection, schedule: Q04DX003 (ip), vehicle: saline
[11] = dose: 200.0 mg/kg/injection, schedule: Q04DX003 (ip), vehicle: saline
[12] = dose: 400.0 mg/kg/injection, schedule: Q04DX003 (ip), vehicle: saline
[13] = dose: 100.0 mg/kg/injection, schedule: Q01DX001 (ip), vehicle: saline
[14] = dose: 200.0 mg/kg/injection, schedule: Q01DX001 (ip), vehicle: saline
[15] = dose: 400.0 mg/kg/injection, schedule: Q01DX001 (ip), vehicle: saline

Measured: T/C

CCN(CC)CCCC(C)Nc1cc(C)nc(/N=C(\N)Nc2ccc(Cl)c(Cl)c2)n1 (stereo not drawn)
inactive: [1] 96 % of control | [2] 94 % of control | [3] 92 % of control

[Si]c1ccc(-c2ccccc2)cc1
inactive: dose: 25.6 mg/kg/injection, schedule: Q04DX002 (ip), vehicle: saline with Tween-80 101 % of control | dose: 64.0 mg/kg/injection, schedule: Q04DX002 (ip), vehicle: saline with Tween-80 97 % of control | dose: 100.0 mg/kg/injection, schedule: Q04DX003 (ip), vehicle: saline with Tween-80 87 % of control | dose: 160.0 mg/kg/injection, schedule: Q04DX002 (ip), vehicle: saline with Tween-80 87 % of control | dose: 400.0 mg/kg/injection, schedule: Q04DX002 (ip), vehicle: saline with Tween-80 90 % of control

CSc1cccc(/C=C\c2ccc([N+](=O)[O-])cc2)c1
inactive: [4] 101 % of control | [5] 94 % of control | [6] 100 % of control | [7] 94 % of control | [8] 88 % of control | [9] 96 % of control

CNC(=O)C(C)(C)Br
inactive: [10] 105 % of control | [11] 109 % of control | [12] 107 % of control

Cc1cc(C)c(NC(=O)c2ccccc2F)cc1C
inactive: [4] 101 % of control | [6] 100 % of control | [8] 97 % of control

CCOC(=O)c1cnc(SC)nc1Nc1ccccc1Br
inactive: [5] 92 % of control | [7] 97 % of control | [9] 98 % of control

CN(C)N=Nc1cn(C)c(=O)n(C)c1=O
inactive: dose: 150.0 mg/kg/injection, schedule: Q04DX003 (ip), vehicle: water 106 % of control

CC(=O)OC1C(C=O)OC(C)(C)OC1C1COC(=O)O1 (stereo not drawn)
inactive: dose: 25.0 mg/kg/injection, schedule: Q04DX002 (ip), vehicle: Klucel (hydroxypropylcellulose) (HPC) 104 % of control | dose: 50.0 mg/kg/injection, schedule: Q04DX002 (ip), vehicle: Klucel (hydroxypropylcellulose) (HPC) 93 % of control | dose: 100.0 mg/kg/injection, schedule: Q04DX002 (ip), vehicle: Klucel (hydroxypropylcellulose) (HPC) 100 % of control

O=[N+]([O-])c1ccc[nH]1
inactive: [10] 98 % of control

O=C(O)C1C(C(=O)Nc2cc(C(F)(F)F)ccc2Cl)C2(Cl)C(Cl)=C(Cl)C1(Cl)C2(Cl)Cl (stereo not drawn)
inactive: [1] 97 % of control | [2] 95 % of control | dose: 50.0 mg/kg/injection, schedule: Q04DX003 (ip), vehicle: Klucel (hydroxypropylcellulose) (HPC) 95 % of control | [5] 93 % of control and 91 % of control

O=C1OCCN1/N=C/c1ccc([N+](=O)[O-])o1
inactive: [4] 107 % of control | [5] 105 % of control | [6] 110 % of control | [7] 105 % of control | [8] 97 % of control | [9] 106 % of control

COc1ccc2c(c1)Cc1c-2nc2ccccc2c1Cl
inactive: dose: 50.0 mg/kg/injection, schedule: Q01DX001 (ip), vehicle: saline 101 % of control | [13] 93 % of control | [14] 96 % of control | [15] 100 % of control

CC(=O)[O][Pb]([CH2]C(C)C)([CH2]C(C)C)[CH2]C(C)C
inactive: dose: 1.5 mg/kg/injection, schedule: Q01DX009 (ip), vehicle: Klucel (hydroxypropylcellulose) (HPC) 97 % of control | dose: 3.0 mg/kg/injection, schedule: Q01DX001 (ip), vehicle: Klucel (hydroxypropylcellulose) (HPC) 91 % of control | dose: 3.0 mg/kg/injection, schedule: Q01DX009 (ip), vehicle: Klucel (hydroxypropylcellulose) (HPC) 95 % of control | dose: 6.0 mg/kg/injection, schedule: Q01DX001 (ip), vehicle: Klucel (hydroxypropylcellulose) (HPC) 96 % of control | dose: 6.0 mg/kg/injection, schedule: Q01DX009 (ip), vehicle: Klucel (hydroxypropylcellulose) (HPC) 95 % of control | dose: 6.25 mg/kg/injection, schedule: Q01DX009 (ip), vehicle: Klucel (hydroxypropylcellulose) (HPC) 96 % of control | dose: 12.0 mg/kg/injection, schedule: Q01DX001 (ip), vehicle: Klucel (hydroxypropylcellulose) (HPC) 92 % of control | dose: 12.5 mg/kg/injection, schedule: Q04DX002 (ip), vehicle: Klucel (hydroxypropylcellulose) (HPC) 96 % of control

O=S(=O)(Nc1ccccc1)c1ccccc1CC(O)(c1ccccc1)c1ccccc1
inactive: dose: 100.0 mg/kg/injection, schedule: Q01DX001 (ip), vehicle: steriod suspending solution 95 % of control | dose: 200.0 mg/kg/injection, schedule: Q01DX001 (ip), vehicle: steriod suspending solution 93 % of control | dose: 400.0 mg/kg/injection, schedule: Q01DX001 (ip), vehicle: steriod suspending solution 87 % of control

Cc1ccc([N+](=O)[O-])cc1NC(=O)Nc1ccc(CCO)cc1
inactive: [4] 90 % of control | [6] 93 % of control

COc1ccc(CCN(CC(=O)O)S(=O)(=O)c2ccc(C)cc2)cc1OC
inactive: [13] 91 % of control | [14] 100 % of control | [15] 100 % of control

Clc1ccc(Cl)c(N=Cc2ccc3c(c2)OCO3)c1
inactive: [10] 92 % of control | [11] 95 % of control | [12] 92 % of control

CC(C#N)c1cccc(C(=O)O)c1 (stereo not drawn)
inactive: dose: 100.0 mg/kg/injection, schedule: Q01DX001 (ip), vehicle: carboxymethylcellulose (CMC) 105 % of control | dose: 200.0 mg/kg/injection, schedule: Q01DX001 (ip), vehicle: carboxymethylcellulose (CMC) 105 % of control | dose: 400.0 mg/kg/injection, schedule: Q01DX001 (ip), vehicle: carboxymethylcellulose (CMC) 96 % of control

O=C(OC(=Nc1ccc([N+](=O)[O-])cc1)c1cc(N2CCCC2)ccn1)c1ccc(-c2ccccc2)cc1
inactive: [13] 98 % of control | [14] 97 % of control | [15] 92 % of control

Cc1c2ccc3ccccc3c2cc2cccc(C#N)c12
inactive: [3] 106 % of control | dose: 200.0 mg/kg/injection, schedule: Q01DX001 (ip), vehicle: Klucel (hydroxypropylcellulose) (HPC) 98 % of control | dose: 400.0 mg/kg/injection, schedule: Q01DX001 (ip), vehicle: Klucel (hydroxypropylcellulose) (HPC) 98 % of control

CCCC(=O)Nc1ccc(C(=O)OCC)cc1
inactive: dose: 100.0 mg/kg/injection, schedule: Q04DX002 (ip), vehicle: saline 93 % of control | dose: 200.0 mg/kg/injection, schedule: Q04DX002 (ip), vehicle: saline 100 % of control | dose: 400.0 mg/kg/injection, schedule: Q04DX002 (ip), vehicle: saline 107 % of control

C=CCN(CC=C)/N=N/c1[nH]ncc1C(=O)OCC
inactive: dose: 100.0 mg/kg/injection, schedule: Q01DX001 (ip), vehicle: saline with Tween-80 100 % of control | dose: 100.0 mg/kg/injection, schedule: Q01DX009 (ip), vehicle: saline with Tween-80 106 % of control | dose: 200.0 mg/kg/injection, schedule: Q01DX001 (ip), vehicle: saline with Tween-80 92 % of control | dose: 200.0 mg/kg/injection, schedule: Q01DX009 (ip), vehicle: saline with Tween-80 100 % of control | dose: 400.0 mg/kg/injection, schedule: Q01DX001 (ip), vehicle: saline with Tween-80 101 % of control | dose: 400.0 mg/kg/injection, schedule: Q01DX009 (ip), vehicle: saline with Tween-80 104 % of control

COc1cc([N+](=O)[O-])c2nc(/C=N/NC(N)=S)ccc2c1[N+](=O)[O-]
inactive: [14] 86 % of control

Cc1cccc(Cl)c1NC(=O)NCCCl
inactive: [5] 94 % of control | [7] 92 % of control | [9] 94 % of control
